Results: patent publication US12662521B2, “Engineered osteocalcins for treating sarcopenia” (The Trustees of Columbia University in the City of New York, priority 2020, dated 2026)
Entries after “also recorded” stand apart in the source; their conditions may differ. Like-named read-outs stand apart in the source and are kept apart here.

Experiments:
[1] = Table 1, drugs developed to target muscle mass; cited from earlier work
[2] = system: dexamethasone-treated mice; details: for running capacity / exercise / Muscle mass: dexamethasone-treated mice; for Muscle mass: oxidative, glycolytic and mixed muscles
Description: It was also further examined whether an osteocalcin treatment might preserve muscle function and/or muscle mass in a clinically relevant mouse model of sarcopenia.
FIG. 9A and FIG. 9B show exemplary graphs pf exemplary modeling sarcopenia in mice.

young and older mice [3] = details: exogenous osteocalcin, data of WO 2016/081728, cited from earlier work
Liver Factor 1 = Liver Factor 1 production during exercise; assay type: in vivo; details: FIG. 7
Description: OCN signaling in the liver is required for exercise capacity (see FIG. 6). OCN enhances Liver Factor 1 production during exercise (see FIG. 7). Liver Factor 1 mediates OCN regulation of exercise capacity (see FIG. 8).

Dexamethasone mice = test: another recognized model of sarcopenia: dexamethasone delivered by pumps for 28 days, muscle mass and treadmill running; assay type: in vivo; set-up: dose or concentration left out as unconfirmed; details: dexamethasone by pumps for 28 days; osteocalcin also by pumps
young and older mice [4] = test: exercise capacity of young and older mice given exogenous osteocalcin; assay type: in vivo; details: FIG. 1
Description: Exemplary data showing that osteocalcin signaling in myofibers favors adaptation to exercise because it increases uptake and utilization of glucose into the tricarboxylic acid cycle and promotes fatty acids utilization are included in International Patent Application Publication WO 2016/081728, the disclosure of which is incorporated herein by reference. Osteocalcin signaling in myofibers is also the main determinant of the exercise-induced upregulation of Interleukin-6, a myokine that favors the generation of bioactive osteocalcin and of nutrients made available for myofibers. Furthermore, circulating osteocalcin levels decline steeply before mid-life and increase less during exercise in older than in younger mice. […] Thus, there is an osteocalcin-interleukin-6 axis that can be necessary to enhance muscle function during exercise and can be harnessed to reverse age-induced decline in exercise capacity.
Exemplary data showing that, by signaling in myofibers, osteocalcin favors adaptation to exercise because it promotes glucose uptake and utilization in the tricarboxylic acid (TCA) cycle as well as utilization of FAs are also included in International Patent Application Publication WO 2016/081728, the disclosure of which is incorporated herein by reference. […]

[5] = system: mice that received dexamethasone; test: deleterious effect of dexamethasone on muscle function, osteocalcin given concomitantly or after two weeks of dexamethasone; assay type: in vivo

In the case of CN(C)N(C)C(=O)[C@@]1(Cc2ccccc2)CCCN(C(=O)[C@@H](Cc2c[nH]c3ccccc23)NC(=O)C(C)(C)N)C1 [Anamorelin, reference compound], the Muscle mass [1] is listed as “✓”.

For C[C@](O)(COc1ccc(C#N)cc1)C(=O)Nc1ccc(C#N)c(C(F)(F)F)c1 [Enbosarm, reference compound], the Muscle mass [1] is listed as “✓”.

For C[C@H](Nc1ccc(C#N)c(Cl)c1Cl)C(C)(C)O [GSK2849466, reference compound], the Muscle mass [1] is given as “✓”.

In the case of N#Cc1ccc(N2CCC[C@@H]2[C@@H](O)C(F)(F)F)cc1C(F)(F)F [VK5211, reference compound], the Muscle mass [1] is listed as “✓”, the “running capacity / exercise” value [2] is listed as “only had a modest effect” and the Muscle mass [2] is listed as “fully restored muscle mass to normal levels”.

For C[C@@H]1C[C@H]2[C@@H]3CCC4=CC(=O)C=C[C@]4(C)[C@@]3(F)[C@@H](O)C[C@]2(C)[C@@]1(O)C(=O)CO [dexamethasone, reference compound], the “decrease of circulating lymphocyte counts” value ([2]; after dexamethasone treatment) was 50%, the “diminution of gastrocnemius muscle mass” value ([2]; mouse, in vivo) was 30% and the “reduction of running capacity” value ([2]; mouse, in vivo) was 50%.

In the case of “osteocalcin (YLGASVPSPDPLEPTREQCELNPACDELSDQYGLKTAYKRIYGITI; UniProt P86546 50-95, looked up)”, the “exercise capacity of older mice” value (young and older mice [3]; 12 to 15 month-old mice) is listed as “confers to 15 months-old mice exercise capacity of 3 month-old mice; also recorded: confers to 12 to 15 month-old mice the exercise capacity of 3 month-old mice”, the “exercise capacity of young mice” value (young and older mice [3]) is listed as “increases the exercise capacity” and the “Liver Factor 1 production during exercise” value (Liver Factor 1) is listed as “enhances”. The Muscle mass (Dexamethasone mice) was “lost significantly less muscle mass”, the “exercise capacity (ability to run on a treadmill)” value (Dexamethasone mice) was “normal exercise capacity” and the “safety / negative side-effects” value (animal models) was “safe with no recorded negative side-effects”. The “age-related decline in exercise” value (young and older mice [4]) was “corrects”, the “deleterious effect of dexamethasone on muscle function” value ([5]; concomitant treatment with osteocalcin, 1 year-old mice) was “presented” and the “deleterious effect of dexamethasone on muscle function” value ([5]; osteocalcin administered in mice that had already received dexamethasone for two weeks) was “partially revert”. The “performance compared with VK5211” value ([2]; Dex-induced sarcopenia) was “outperforms”, the “IL-6 in Dex-induced sarcopenia” value ([2]; FIG. 12) was “favors IL-6” and the “running capacity / exercise” value [2] was “fully rescued the running capacity”. For the same molecule, the Muscle mass ([2]; listed as OCN) was “marginal effect”, the DEX toxicity ([2]; mouse, in vivo) was “does not interfere” and the “dexamethasone-induced immune suppression (circulating lymphocyte counts)” value ([2]; mouse, in vivo) was “did not interfere with nor did it exacerbate”. For the same molecule, the off-target effects ([2]; mouse, in vivo) was “no overt off-target effects”.

B1: REGN1033: Myostatin inhibitor, Regeneron (antibody, chains of the INN, looked up, V domains shown)
VH: EVQVLESGGDLVQPGGSLRLSCAASGFTFSAYAMTWVRQAPGKGLEWVSAISGSGGSAYYADSVKGRFTISRDNSKNTVYLQMNSLRAEDTAVYYCAKDGAWKMSGLDVWGQGTTVIVSS
VL: DIQMTQSPASLSASVGDRVTITCRASQDISDYLAWYQQKPGKIPRLLIYTTSTLQSGVPSRFRGSGSGTDFTLTISSLQPEDVATYYCQKYDSAPLTFGGGTKVEIK
In the case of B1, the Muscle mass [1] is listed as “✓”.

B2: LY2495655: Myostatin inhibitor, Eli Lilly (antibody, chains of the INN, looked up, V domains shown)
VH: EVQLVESGGGLVQPGGSLRLSCAASGLTFSRYPMSWVRQAPGKGLVWVSAITSSGGSTYYSDTVKGRFTISRDNAKNTLYLQMNSLRAEDTAVYYCARLPDYWGQGTLVTVSS
VL: EIVLTQSPGTLSLSPGERATLSCRASSSVSSSYLHWYQQKPGQAPRLLIYSTSNLVAGIPDRFSGSGSGTDFTLTISRLEPEDFAVYYCQHHSGYHFTFGGGTKVEIK
For B2, the Muscle mass [1] is listed as “✓”.

B3: BYM338: Myostatin inhibitor, Novartis (antibody, chains of the INN, looked up, V domains shown)
VH: QVQLVQSGAEVKKPGASVKVSCKASGYTFTSSYINWVRQAPGQGLEWMGTINPVSGSTSYAQKFQGRVTMTRDTSISTAYMELSRLRSDDTAVYYCARGGWFDYWGQGTLVTVSS
VL: QSALTQPASVSGSPGQSITISCTGTSSDVGSYNYVNWYQQHPGKAPKLMIYGVSKRPSGVSNRFSGSKSGNTASLTISGLQAEDEADYYCGTFAGGSYYGVFGGGTKLTVL
In the case of B3, the Muscle mass [1] is given as “✓”.

B4: PF-06252616: Myostatin inhibitor, Pfizer (antibody, chains of the INN, looked up, V domains shown)
VH: EVQLLESGGGLVQPGGSLRLSCAASGFTFSSYAMSWVRQAPGKGLEWVSTISSGGSYTSYPDSVKGRFTISRDNSKNTLYLQMNSLRAEDTAVYYCAKQDYAMNYWGQGTLVTVSS
VL: DIQMTQSPSSLSASVGDRVTITCKASQDVSTAVAWYQQKPGKAPKLLIYSASYRYTGVPSRFSGSGSGTDFTLTISSLQPEDFATYYCQQHYSTPWTFGGGTKVEIK
In the case of B4, the Muscle mass [1] is given as “✓”.
